According to ChEMBL document CHEMBL1681705, “Optimisation of ITK inhibitors through successive iterative design cycles” (Bioorg Med Chem Lett, 2011):

Assays:
[1] = biological target: T1, cGMP-dependent protein kinase 1 (Homo sapiens) (UniProt Q13976); assay: Inhibition of PKG1beta at 1 uM; values are per cent of control
T1 sequence (whole entry): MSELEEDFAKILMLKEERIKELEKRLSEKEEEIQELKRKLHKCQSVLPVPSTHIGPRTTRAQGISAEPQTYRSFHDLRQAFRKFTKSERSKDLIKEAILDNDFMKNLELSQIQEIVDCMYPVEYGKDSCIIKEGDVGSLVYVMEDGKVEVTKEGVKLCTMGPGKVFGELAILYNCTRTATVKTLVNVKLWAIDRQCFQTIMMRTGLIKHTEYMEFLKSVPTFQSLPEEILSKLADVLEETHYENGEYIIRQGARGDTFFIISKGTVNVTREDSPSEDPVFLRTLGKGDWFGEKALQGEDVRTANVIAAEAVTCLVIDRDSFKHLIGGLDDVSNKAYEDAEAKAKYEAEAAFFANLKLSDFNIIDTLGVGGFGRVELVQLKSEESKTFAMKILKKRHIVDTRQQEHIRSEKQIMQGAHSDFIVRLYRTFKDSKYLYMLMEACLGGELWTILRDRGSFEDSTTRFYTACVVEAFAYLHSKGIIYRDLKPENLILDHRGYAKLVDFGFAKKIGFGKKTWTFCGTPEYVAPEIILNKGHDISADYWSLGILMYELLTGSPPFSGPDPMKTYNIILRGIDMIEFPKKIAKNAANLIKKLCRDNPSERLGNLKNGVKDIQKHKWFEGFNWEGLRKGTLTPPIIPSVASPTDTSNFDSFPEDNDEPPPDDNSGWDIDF

[2] = biological target: Tyrosine-protein kinase BTK (Homo sapiens) (UniProt Q06187); assay: Inhibition of BTK at 1 uM; values are per cent of control
[3] = biological target: T2, Serine/threonine-protein kinase STK11 (Homo sapiens) (UniProt Q15831); assay: Inhibition of LKB1 at 1 uM; values are per cent of control
T2 sequence (whole entry): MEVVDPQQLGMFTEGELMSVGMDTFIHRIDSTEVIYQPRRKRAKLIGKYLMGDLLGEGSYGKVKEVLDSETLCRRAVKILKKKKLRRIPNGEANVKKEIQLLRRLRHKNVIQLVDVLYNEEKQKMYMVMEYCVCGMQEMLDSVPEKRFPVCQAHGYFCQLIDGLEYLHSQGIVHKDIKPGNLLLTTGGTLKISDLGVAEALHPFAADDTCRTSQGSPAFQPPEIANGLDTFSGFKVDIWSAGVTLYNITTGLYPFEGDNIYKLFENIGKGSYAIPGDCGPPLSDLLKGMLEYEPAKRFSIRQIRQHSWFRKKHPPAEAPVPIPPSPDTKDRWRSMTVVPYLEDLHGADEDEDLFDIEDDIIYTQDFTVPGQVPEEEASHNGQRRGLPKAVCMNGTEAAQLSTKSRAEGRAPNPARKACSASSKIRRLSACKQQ

[4] = biological target: Receptor-interacting serine/threonine-protein kinase 2 (Homo sapiens) (UniProt O43353); assay: Inhibition of RIPK2 at 1 uM; values are per cent of control
[5] = biological target: Mitogen-activated protein kinase 10 (Homo sapiens) (UniProt P53779); assay: Inhibition of JNK3 at 0.1 uM; values are per cent of control
[6] = biological target: Ephrin type-A receptor 7 (Homo sapiens) (UniProt Q15375); assay: Inhibition of EphA7 at 0.1 uM; values are per cent of control
[7] = Inhibition of PDK1 at 0.1 uM
[8] = biological target: Tyrosine-protein kinase CSK (Homo sapiens) (UniProt P41240); assay: Inhibition of CSK at 1 uM; values are per cent of control
[9] = biological target: Tyrosine-protein kinase BTK (Homo sapiens) (UniProt Q06187); assay: Inhibition of BTK at 0.1 uM; values are per cent of control
[10] = biological target: Tyrosine-protein kinase CSK (Homo sapiens) (UniProt P41240); assay: Inhibition of CSK at 0.1 uM; values are per cent of control
[11] = biological target: CDK6/cyclin D3 (Homo sapiens) (UniProt P30281+Q00534); assay: Inhibition of CDK6/cyclin D3 at 0.1 uM; values are per cent of control
[12] = biological target: Proto-oncogene tyrosine-protein kinase Src (Homo sapiens) (UniProt P12931); assay: Inhibition of c-SRC at 0.1 uM; values are per cent of control
[13] = biological target: Cyclin-dependent kinase 5/CDK5 activator 1 (Homo sapiens) (UniProt Q00535+Q15078); assay: Inhibition of CDK5/p35 at 0.1 uM; values are per cent of control
[14] = biological target: Insulin-like growth factor 1 receptor (Homo sapiens) (UniProt P08069); assay: Inhibition of IGF1R at 1 uM; values are per cent of control
[15] = biological target: Ephrin type-A receptor 7 (Homo sapiens) (UniProt Q15375); assay: Inhibition of EphA7 at 1 uM; values are per cent of control

Sequence of Tyrosine-protein kinase BTK (Homo sapiens) (Q06187 whole entry): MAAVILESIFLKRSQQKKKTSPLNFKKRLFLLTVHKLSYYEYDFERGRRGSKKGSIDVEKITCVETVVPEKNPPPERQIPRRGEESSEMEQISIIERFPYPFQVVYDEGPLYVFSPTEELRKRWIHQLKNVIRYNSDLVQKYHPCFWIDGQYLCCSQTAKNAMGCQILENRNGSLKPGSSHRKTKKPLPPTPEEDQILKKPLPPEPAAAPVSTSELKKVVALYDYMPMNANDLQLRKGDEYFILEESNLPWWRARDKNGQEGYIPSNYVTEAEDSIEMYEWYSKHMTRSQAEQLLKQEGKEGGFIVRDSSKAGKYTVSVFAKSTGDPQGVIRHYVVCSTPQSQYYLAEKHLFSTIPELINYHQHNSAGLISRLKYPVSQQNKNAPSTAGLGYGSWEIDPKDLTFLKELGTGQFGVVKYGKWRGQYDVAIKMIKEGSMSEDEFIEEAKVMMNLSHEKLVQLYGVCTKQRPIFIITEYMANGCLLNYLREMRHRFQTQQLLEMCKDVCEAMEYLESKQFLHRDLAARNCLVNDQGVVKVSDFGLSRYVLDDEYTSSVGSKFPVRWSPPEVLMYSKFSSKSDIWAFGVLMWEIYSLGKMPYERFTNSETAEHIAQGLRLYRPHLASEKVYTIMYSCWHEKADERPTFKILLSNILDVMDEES
Sequence of Ephrin type-A receptor 7 (Homo sapiens) (Q15375 28-998 limits assumed): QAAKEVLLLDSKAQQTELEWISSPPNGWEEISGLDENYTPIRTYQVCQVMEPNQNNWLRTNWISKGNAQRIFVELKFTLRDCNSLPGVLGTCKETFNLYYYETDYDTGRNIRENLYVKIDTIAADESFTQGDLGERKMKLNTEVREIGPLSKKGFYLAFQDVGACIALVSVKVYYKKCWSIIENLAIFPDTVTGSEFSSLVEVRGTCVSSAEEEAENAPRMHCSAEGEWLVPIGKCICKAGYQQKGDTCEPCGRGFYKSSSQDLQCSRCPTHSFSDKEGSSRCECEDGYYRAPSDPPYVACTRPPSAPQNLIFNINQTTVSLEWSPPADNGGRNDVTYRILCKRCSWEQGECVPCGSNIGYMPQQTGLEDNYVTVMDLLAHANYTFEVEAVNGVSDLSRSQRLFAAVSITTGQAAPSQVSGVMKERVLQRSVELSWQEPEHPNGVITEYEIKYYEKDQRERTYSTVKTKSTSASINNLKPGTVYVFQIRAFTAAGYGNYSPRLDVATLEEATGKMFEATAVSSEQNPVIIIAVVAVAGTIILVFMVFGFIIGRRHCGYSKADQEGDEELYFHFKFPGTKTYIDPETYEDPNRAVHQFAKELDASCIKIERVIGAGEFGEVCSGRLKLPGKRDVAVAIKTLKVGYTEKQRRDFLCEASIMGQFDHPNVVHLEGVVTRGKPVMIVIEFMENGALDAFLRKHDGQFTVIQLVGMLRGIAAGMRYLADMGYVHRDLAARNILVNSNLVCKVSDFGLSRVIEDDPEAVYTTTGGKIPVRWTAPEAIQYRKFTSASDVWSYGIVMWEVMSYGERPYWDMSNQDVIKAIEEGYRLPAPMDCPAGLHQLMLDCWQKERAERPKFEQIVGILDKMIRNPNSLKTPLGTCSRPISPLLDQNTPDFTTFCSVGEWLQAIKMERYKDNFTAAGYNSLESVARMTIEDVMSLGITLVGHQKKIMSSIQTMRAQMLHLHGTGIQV
Sequence of Tyrosine-protein kinase CSK (Homo sapiens) (P41240 2-450 limits assumed): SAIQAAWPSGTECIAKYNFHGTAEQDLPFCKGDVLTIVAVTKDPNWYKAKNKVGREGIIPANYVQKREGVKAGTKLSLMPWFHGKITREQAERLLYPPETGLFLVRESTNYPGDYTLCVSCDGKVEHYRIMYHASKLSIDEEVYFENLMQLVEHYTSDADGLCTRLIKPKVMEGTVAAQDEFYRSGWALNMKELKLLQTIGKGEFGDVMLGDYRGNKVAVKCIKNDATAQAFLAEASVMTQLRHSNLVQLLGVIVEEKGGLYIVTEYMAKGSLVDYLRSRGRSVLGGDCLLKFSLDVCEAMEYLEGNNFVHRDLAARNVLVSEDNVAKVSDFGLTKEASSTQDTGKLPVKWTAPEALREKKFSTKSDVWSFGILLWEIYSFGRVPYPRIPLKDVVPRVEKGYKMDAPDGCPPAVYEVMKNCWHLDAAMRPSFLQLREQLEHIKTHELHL
Sequence of Mitogen-activated protein kinase 10 (Homo sapiens) (P53779 whole entry): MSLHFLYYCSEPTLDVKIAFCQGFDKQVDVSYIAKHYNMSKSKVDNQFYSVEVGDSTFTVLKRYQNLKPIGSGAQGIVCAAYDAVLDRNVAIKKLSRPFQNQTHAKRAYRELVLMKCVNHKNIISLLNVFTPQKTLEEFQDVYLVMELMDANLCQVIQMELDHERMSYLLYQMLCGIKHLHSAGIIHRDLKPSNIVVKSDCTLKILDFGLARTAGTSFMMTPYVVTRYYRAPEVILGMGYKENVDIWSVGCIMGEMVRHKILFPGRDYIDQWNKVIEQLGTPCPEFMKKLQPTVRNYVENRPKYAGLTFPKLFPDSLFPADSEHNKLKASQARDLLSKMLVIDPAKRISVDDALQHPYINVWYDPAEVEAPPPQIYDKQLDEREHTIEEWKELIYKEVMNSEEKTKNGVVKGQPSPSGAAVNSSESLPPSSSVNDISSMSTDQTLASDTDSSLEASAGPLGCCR
Sequence of Proto-oncogene tyrosine-protein kinase Src (Homo sapiens) (P12931 2-536 limits assumed): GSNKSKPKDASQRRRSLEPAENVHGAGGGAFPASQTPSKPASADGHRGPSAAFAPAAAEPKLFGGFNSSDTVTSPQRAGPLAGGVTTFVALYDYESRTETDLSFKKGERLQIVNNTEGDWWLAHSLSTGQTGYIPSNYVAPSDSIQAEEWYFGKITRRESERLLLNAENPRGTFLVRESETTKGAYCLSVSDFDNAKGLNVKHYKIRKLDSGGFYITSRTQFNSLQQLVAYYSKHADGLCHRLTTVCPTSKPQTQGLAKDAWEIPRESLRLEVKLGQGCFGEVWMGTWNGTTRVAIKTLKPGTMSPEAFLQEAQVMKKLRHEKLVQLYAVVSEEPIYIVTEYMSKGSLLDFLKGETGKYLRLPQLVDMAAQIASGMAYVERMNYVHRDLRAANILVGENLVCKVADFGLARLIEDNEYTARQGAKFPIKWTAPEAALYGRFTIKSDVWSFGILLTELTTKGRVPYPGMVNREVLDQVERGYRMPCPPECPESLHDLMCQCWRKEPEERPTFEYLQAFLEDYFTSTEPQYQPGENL
Sequence of Insulin-like growth factor 1 receptor (Homo sapiens) (P08069 31-736 limits assumed): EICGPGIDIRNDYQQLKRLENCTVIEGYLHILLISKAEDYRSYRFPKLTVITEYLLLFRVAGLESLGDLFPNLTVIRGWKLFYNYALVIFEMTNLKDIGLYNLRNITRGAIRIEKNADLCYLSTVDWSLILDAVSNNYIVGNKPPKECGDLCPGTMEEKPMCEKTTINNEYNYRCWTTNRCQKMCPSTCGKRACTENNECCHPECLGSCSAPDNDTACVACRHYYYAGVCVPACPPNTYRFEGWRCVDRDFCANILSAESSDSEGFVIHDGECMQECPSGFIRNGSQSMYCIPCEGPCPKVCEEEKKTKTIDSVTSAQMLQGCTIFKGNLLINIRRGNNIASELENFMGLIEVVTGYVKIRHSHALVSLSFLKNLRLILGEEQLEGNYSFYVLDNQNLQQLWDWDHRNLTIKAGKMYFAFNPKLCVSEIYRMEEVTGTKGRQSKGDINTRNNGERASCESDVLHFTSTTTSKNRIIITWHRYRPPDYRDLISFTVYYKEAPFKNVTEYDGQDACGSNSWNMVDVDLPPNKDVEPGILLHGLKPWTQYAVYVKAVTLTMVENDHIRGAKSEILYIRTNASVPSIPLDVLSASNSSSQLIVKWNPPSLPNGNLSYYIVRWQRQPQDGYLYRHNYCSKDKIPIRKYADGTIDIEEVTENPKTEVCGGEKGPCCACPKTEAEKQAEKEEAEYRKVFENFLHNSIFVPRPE
Sequence of Insulin-like growth factor 1 receptor (Homo sapiens) (P08069 741-1367 limits assumed): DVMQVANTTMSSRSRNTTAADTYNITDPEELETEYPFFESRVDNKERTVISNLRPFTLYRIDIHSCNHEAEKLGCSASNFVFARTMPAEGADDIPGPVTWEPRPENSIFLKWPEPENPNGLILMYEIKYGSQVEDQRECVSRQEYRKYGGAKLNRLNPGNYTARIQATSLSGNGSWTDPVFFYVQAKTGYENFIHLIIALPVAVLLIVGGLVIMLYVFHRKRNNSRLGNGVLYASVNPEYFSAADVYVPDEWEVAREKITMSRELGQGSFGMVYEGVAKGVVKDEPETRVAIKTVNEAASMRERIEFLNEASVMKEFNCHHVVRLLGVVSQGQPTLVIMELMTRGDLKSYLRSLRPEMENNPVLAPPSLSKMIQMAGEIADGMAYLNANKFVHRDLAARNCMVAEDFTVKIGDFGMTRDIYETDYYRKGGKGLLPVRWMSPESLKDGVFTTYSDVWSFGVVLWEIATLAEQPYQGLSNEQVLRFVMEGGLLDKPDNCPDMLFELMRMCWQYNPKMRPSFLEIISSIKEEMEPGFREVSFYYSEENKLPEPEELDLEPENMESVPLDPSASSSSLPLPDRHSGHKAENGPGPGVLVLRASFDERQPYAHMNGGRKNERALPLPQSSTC
Sequence of Receptor-interacting serine/threonine-protein kinase 2 (Homo sapiens) (O43353 whole entry): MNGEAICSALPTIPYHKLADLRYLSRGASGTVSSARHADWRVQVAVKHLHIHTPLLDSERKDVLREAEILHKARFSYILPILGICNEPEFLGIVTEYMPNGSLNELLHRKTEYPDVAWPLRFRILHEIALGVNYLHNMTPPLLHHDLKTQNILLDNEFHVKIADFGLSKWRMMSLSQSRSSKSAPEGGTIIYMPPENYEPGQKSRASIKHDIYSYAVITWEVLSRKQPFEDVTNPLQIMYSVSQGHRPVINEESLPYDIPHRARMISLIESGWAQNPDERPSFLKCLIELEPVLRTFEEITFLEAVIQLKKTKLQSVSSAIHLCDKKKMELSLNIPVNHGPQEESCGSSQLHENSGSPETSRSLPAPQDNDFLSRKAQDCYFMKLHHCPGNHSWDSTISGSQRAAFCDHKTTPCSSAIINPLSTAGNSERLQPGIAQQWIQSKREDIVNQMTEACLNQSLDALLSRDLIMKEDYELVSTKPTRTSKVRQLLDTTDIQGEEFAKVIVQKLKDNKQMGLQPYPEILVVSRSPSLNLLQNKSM

Compound	residual activity [1]	residual activity [2]	residual activity [3]	residual activity [4]	residual activity [5]	residual activity [6]	inhibition [7]	residual activity [8]	residual activity [9]	residual activity [10]	residual activity [11]	residual activity [12]	residual activity [13]	residual activity [14]	residual activity [15]
Cc1ccc2cc(-c3n[nH]c4ccc(NC5CCNC5)cc34)[nH]c2c1 (stereo not given)	43%	10%	98%	53%	73%	75%	46%	56%	69%	107%	70%	16%	19%	36%	16%
Cc1ccc2cc(-c3n[nH]c4ccc(NC5CCN(Cc6ccccc6)CC5)cc34)[nH]c2c1	45%	-4%	101%	78%	98%	75%	87%	95%	38%	105%	80%	31%	20%	16%	16%
